{"source": "patent US12419889B2", "about": "“Methods of treating chronic spontaneous urticaria using a bruton's tyrosine kinase inhibitor” (NOVARTIS AG, priority 2019, dated 2025)", "key": {"[1]": {"assay": "Safety and tolerability in healthy volunteers", "format": "in vivo, human", "procedure": "Standard safety monitoring was used throughout all study parts. A dedicated assessment of potential skin bruising events were included. All vital signs, physical examination and subject history, ECGs, adverse events, and laboratory safety parameters (blood chemistry, hematology and urinalysis) up to 96 hours post last dose as well as PK data from the previous dose group (if available) up to 48 hours post last dose were to be reviewed in a blinded fashion for each cohort before dose escalation. Summary safety reports of reported adverse events, clinical safety laboratory parameters, QTc and heart rate were provided after completion of each dose level.\nFor the analysis of adverse effects, the Placebo subjects from all SAD and MAD cohorts (2 per cohort) and separated by the SAD and MAD parts were pooled into one Placebo group (n=20 for SAD and n=16 for MAD) to be compared with each single compound (I) dose group (n=6 each) and the total compound (I) group (n=60 for SAD and n=48 for MAD). There were no apparent major differences in the demographic data between placebo and the active groups both for the SAD and MAD populations."}, "[2]": {"target": "T1, BTK (Mus musculus, UniProt P35991)", "T1 construct": "from tissue; host or cells: mouse spleen", "T1 sequence (P35991 whole entry)": "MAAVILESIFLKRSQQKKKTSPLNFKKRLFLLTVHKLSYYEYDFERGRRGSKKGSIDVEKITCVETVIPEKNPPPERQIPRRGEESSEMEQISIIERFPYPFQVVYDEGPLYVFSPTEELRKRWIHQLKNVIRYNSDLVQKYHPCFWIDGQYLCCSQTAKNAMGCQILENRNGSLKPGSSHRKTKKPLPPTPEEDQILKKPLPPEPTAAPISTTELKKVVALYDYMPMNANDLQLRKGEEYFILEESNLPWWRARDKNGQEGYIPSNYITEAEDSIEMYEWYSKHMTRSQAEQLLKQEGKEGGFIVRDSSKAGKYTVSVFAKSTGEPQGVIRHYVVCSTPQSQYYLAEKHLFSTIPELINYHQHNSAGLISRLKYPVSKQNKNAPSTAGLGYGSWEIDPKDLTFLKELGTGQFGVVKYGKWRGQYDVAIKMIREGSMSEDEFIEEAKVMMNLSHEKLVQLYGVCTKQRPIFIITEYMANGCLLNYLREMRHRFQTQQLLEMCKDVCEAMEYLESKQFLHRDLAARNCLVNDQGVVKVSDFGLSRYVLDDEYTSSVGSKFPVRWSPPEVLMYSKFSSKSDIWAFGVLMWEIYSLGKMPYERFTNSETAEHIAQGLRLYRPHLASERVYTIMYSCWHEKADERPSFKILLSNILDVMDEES", "assay": "BTK occupancy in spleen in mouse RPA and PCA models", "format": "in vivo", "conditions": "mouse RPA, 5 h after dosing", "procedure": "The in vivo PD effects of an irreversible BTK inhibitor like compound (I) are determined by the extent and duration of covalent BTK occupancy by the inhibitor. BTK occupancy after treatment with Compound of Formula (I) (also referenced to as Compound (I)) was measured in an ex vivo immunoassay. The fraction of unoccupied BTK protein was assayed after in vitro incubation with a covalent biotinylated BTK probe, since compound (I) and the probe bind to BTK in a mutually exclusive manner. Unoccupied BTK, as well as total BTK relative protein levels were determined in lysates of selected tissues and levels of unoccupied BTK were normalized to total BTK protein levels in the same samples.\nOral treatment with compound (I) at a single dose of 3, 10, 30 and 100 mg/kg, given 2 hours prior to induction of the RPA response, reduced skin swelling in a dose-related manner. […] (FIG. 2)\n(§1) The effects of compound (I) on acute skin hypersensitivity were also assessed after two oral doses of compound (I) in the mouse of model of passive cutaneous anaphylaxis (PCA) (Ovary 1958). The mouse PCA model was used at a low dose of sensitizing IgE antibody to minimize complement-dependent anaphylatoxins (Schafer et al. 2013, The journal of allergy and clinical immunology, 131(2), pp. 541; Hata et al. 1998, Journal of Experimental Medicine, 187(8), pp. 1235). […] (FIG. 3). Spleen occupancy at 2.5 hours post last dose ranged from 89.1 to 99.7% (representing peak occupancy) (FIG. 4)."}, "[3]": {"assay": "First-in-human study, blood and urine PK (SAD, MAD q.d., b.i.d.)", "format": "in vivo", "conditions": "for drug accumulation ratio (Racc): MAD q.d.", "procedure": "A first-in-human study was conducted to assess the safety and tolerability, pharmacokinetics (PK) and pharmacodynamics (PD) of single and multiple doses of compound (I) both as once daily (qd) and twice daily (bid) oral administration in healthy volunteers and those with atopic diathesis, to support further clinical development of compound (I) in autoimmune diseases. This study also explored the effect of food intake.\nFirst-in-human study in up to approximately 168 healthy volunteers (HVs), of which 64 (in Parts 2 & 4) had asymptomatic atopic diathesis. • Part 1 was a double-blind (subject and investigator blind, sponsor unblinded), placebo-controlled single ascending dose (SAD) escalation study of 10 cohorts (N=80) • Part 2 was a double-blind (subject and investigator blind, sponsor unblinded), placebo-controlled multiple ascending dose (MAD) (13 doses over 12 days) escalation study employing once daily dosing in 6 cohorts in healthy volunteers with asymptomatic atopic diathesis (N=48) • Part 3 was a single dose open-label crossover food effect study in 12 HVs • Part 4 was a double-blind (subject and investigator blind, sponsor unblinded), placebo-controlled multiple dose (25 doses over 12 days) study employing twice daily dosing in 2 cohorts of healthy volunteers with asymptomatic atopic diathesis (N=16)\nThe SAD part (Part 1) had ten dose levels and the MAD parts (Parts 2 & 4) consisted of eight dose levels (6 cohorts using single daily dosing in Part 2 and 2 cohorts using twice daily dosing in Part 4). Eight subjects were randomized into each cohort to receive either compound (I) or matching placebo in a 6:2 (active: placebo) ratio in the SAD and MAD parts. Within the SAD part, doses up to approximately 4 times the estimated pharmacologically active dose (PAD) were to be evaluated before the MAD part of the study was started, providing there was no safety signal emerging from the SAD part until then.\nIn Part 1, subjects were admitted to the study site on Day −2 or −1 for baseline safety assessments and to confirm eligibility. Eligible subjects received a single dose of compound (I) or placebo under fasting conditions on Day 1. They were domiciled from Day −1 to the morning of Day 5 (96 hours post last drug administration).\nIn Parts 2 and 4, subjects were admitted on Day −2 or −1 for baseline safety assessments and to confirm eligibility. Eligible subjects received the first dose of compound (I) under fasting conditions on Day 1, and continued to take study medication under fasting conditions up to and including Day 12. Subjects were domiciled from Day −2 or −1 until the morning of Day 16, which equals 96 hours after the last dose of compound (I) was received. In Parts 2 and 4, the study medication was given once daily and twice daily respectively (details are found in the schedule of assessments).\nSubjects were assigned to one of the following 10 cohorts. In each cohort, 8 subjects were randomized to either compound (I) or matching placebo in an overall 6:2 ratio. The first sub-cohort was randomized in a 1:1 ratio as one subject on compound (I) and one on matching placebo. […]"}, "[4]": {"tested_on": "passive cutaneous anaphylaxis (PCA)", "assay": "Passive cutaneous anaphylaxis (PCA) model, Evans blue extravasation", "format": "in vivo", "conditions": "mouse PCA", "procedure": "as §1"}}, "data": [{"compound": "C=CC(=O)N(C)CCOc1c(N)ncnc1-c1cc(F)cc(NC(=O)c2ccc(C3CC3)cc2F)c1C", "note": "[Compound (I), N-(3-(6-Amino-5-(2-(N-methylacrylamido)ethoxy)pyrimidin-4-yl)-5-fluoro-2-methylphenyl)-4-cyclopropyl-2-fluorobenzamide]", "values": [{"measurement": "serious or severe adverse events related to intake", "setting": "[1]; 0.5 mg to 600 mg", "result": "no serious or severe adverse event"}, {"measurement": "tolerability", "setting": "[1]; 0.5 mg to 600 mg, single dose or up to 18 days once or twice daily", "result": "well tolerated"}, {"measurement": "safety assessment of the FIH study", "setting": "[1]; dosing up to 600 mg", "result": "does not reveal significant safety concerns"}, {"measurement": "receptor occupancy at 3 mg/kg", "setting": "[2]; 3 mg/kg", "result": 68.1, "unit": "%"}, {"measurement": "receptor occupancy at 10 mg/kg", "setting": "[2]; 10 mg/kg", "result": 82.1, "unit": "%"}, {"measurement": "receptor occupancy at 30 mg/kg", "setting": "[2]; 30 mg/kg", "result": 91.3, "unit": "%"}, {"measurement": "receptor occupancy at 100 mg/kg", "setting": "[2]; 100 mg/kg", "result": 99.3, "unit": "%"}, {"measurement": "Renal clearance, mean ± SD", "setting": "[3]; Day 12, 400 mg qd", "result": "16.9 ± 7.13", "unit": "mL/min"}, {"measurement": "drug accumulation ratio (Racc)", "setting": "[3]; day 12 vs day 1, high dose", "result": 1.2}, {"measurement": "drug accumulation ratio (Racc)", "setting": "[3]; day 12 vs day 1, low dose", "result": 5}, {"measurement": "MRT, median", "setting": "[3]; blood, Day 1, 10 mg qd", "result": 46, "unit": "min"}, {"measurement": "MRT, median", "setting": "[3]; blood, Day 1, 25 mg qd", "result": 70.2, "unit": "min"}, {"measurement": "AUC0-24, median", "setting": "[3]; blood, Day 1, 600 mg qd", "result": 932, "unit": "ng·h/mL"}, {"measurement": "CLss/F, mean ± SD", "setting": "[3]; blood, Day 12, 10 mg qd", "result": "425 ± 64.8", "unit": "L/h"}, {"measurement": "CLss/F, median (min-max)", "setting": "[3]; blood, Day 12, 10 mg qd", "result": "423 (341-529) L/h"}, {"measurement": "AUC0-24, mean ± SD", "setting": "[3]; blood, Day 12, 25 mg qd", "result": "117 ± 60.9", "unit": "ng·h/mL"}, {"measurement": "AUClast, mean ± SD", "setting": "[3]; blood, Day 12, 25 mg qd", "result": "114 ± 59.7", "unit": "ng·h/mL"}, {"measurement": "CLss/F, mean ± SD", "setting": "[3]; blood, Day 12, 25 mg qd", "result": "307 ± 253", "unit": "L/h"}, {"measurement": "CLss/F, median (min-max)", "setting": "[3]; blood, Day 12, 25 mg qd", "result": "248 (129-809) L/h"}, {"measurement": "AUC0-24, mean ± SD", "setting": "[3]; blood, Day 12, 50 mg qd", "result": "209 ± 80.2", "unit": "ng·h/mL"}, {"measurement": "AUC0-24, median (min-max)", "setting": "[3]; blood, Day 12, 50 mg qd", "result": "181 (127-325) h * ng/mL"}, {"measurement": "CLss/F, mean ± SD", "setting": "[3]; blood, Day 12, 50 mg qd", "result": "268 ± 92.8", "unit": "L/h"}, {"measurement": "CLss/F, median (min-max)", "setting": "[3]; blood, Day 12, 50 mg qd", "result": "276 (154-395) L/h"}, {"measurement": "CLss/F, mean ± SD", "setting": "[3]; blood, Day 12, 100 mg qd", "result": "198 ± 88.7", "unit": "L/h"}, {"measurement": "CLss/F, median (min-max)", "setting": "[3]; blood, Day 12, 100 mg qd", "result": "166 (129-298) L/h"}, {"measurement": "CLss/F, mean ± SD", "setting": "[3]; blood, Day 12, 400 mg qd", "result": "366 ± 150", "unit": "L/h"}, {"measurement": "CLss/F, median (min-max)", "setting": "[3]; blood, Day 12, 400 mg qd", "result": "351 (177-591) L/h"}, {"measurement": "CLss/F, mean ± SD", "setting": "[3]; blood, Day 12, 600 mg qd", "result": "521 ± 131", "unit": "L/h"}, {"measurement": "CLss/F, median (min-max)", "setting": "[3]; blood, Day 12, 600 mg qd", "result": "569 (345-661) L/h"}, {"measurement": "Cmax, median (min-max)", "setting": "[3]; blood, Day 12, 600 mg qd", "result": "475 (377-985) ng/mL"}, {"measurement": "increase of Cmax from 100 mg to 200 mg b.i.d.", "setting": "[3]; day 12", "result": 1.33, "unit": "fold"}, {"measurement": "oral blood clearance CL/F, estimate across all cohorts", "setting": "[3]; single dose, all SAD cohorts", "result": "about 383 L/h"}, {"measurement": "inhibition of skin edema (Evans blue extravasation)", "setting": "[4]; two oral doses of 3 mg/kg 14 and 2 hours before challenge", "result": 60.7, "unit": "%"}, {"measurement": "inhibition of skin edema (Evans blue extravasation)", "setting": "[4]; two oral doses of 10 mg/kg 14 and 2 hours before challenge", "result": 66.9, "unit": "%"}, {"measurement": "inhibition of skin edema (Evans blue extravasation)", "setting": "[4]; two oral doses of 30 mg/kg 14 and 2 hours before challenge", "result": 69.2, "unit": "%"}, {"measurement": "inhibition of skin edema (Evans blue extravasation)", "setting": "[4]; two oral doses of 100 mg/kg 14 and 2 hours before challenge", "result": 87.4, "unit": "%"}]}]}
